Measurements published in US12275731B2, “Azaindole inhibitors of wild-type and mutant forms of LRRK2” (DANA-FARBER CANCER INSTITUTE, INC., priority 2018, dated 2025).

Legend:
Experiment in all cases: KinomeScan profiling
Assay type in all cases: binding
CDK7 = CDK7 (Homo sapiens, UniProt P50613); settings: CDK7, 1 μM; read-out: % control
Summary of the method: (§1)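 Selectivity was assessed by binding competition at 1 μM against 468 kinases. Values below 35% of control define an interaction.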

DAPK1 = DAPK1 (Homo sapiens, UniProt P53355); settings: DAPK1, 1 μM; read-out: % control
Summary of the method: as §1

ERBB4 = ERBB4 (Homo sapiens, UniProt Q15303); settings: ERBB4, 1 μM; read-out: % control
Summary of the method: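 Compounds were screened at 1 μM in DMSO across a 468-kinase KinomeScan panel. Binding was expressed as % control, scaled between a positive control (0%) and DMSO (100%) using luminescence signal. A value under 35% counted as active.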

[1] = target: T1, JAK2(JH1domain-catalytic) (Homo sapiens, UniProt O60674); settings: read-out: % control
T1 construct: Janus kinase 2 (JAK2)(JH1domain-catalytic); purchased KinomeScan®
Summary of the method: as §1

KIT(V559D, V654A) = target: T2, KIT(V559D, V654A) (Homo sapiens, UniProt P10721, V559D/V654A); settings: read-out: % control
T2 construct: purchased KinomeScan®
Summary of the method: as §1

LCK = LCK (Homo sapiens, UniProt P06239); settings: read-out: % control
Summary of the method: as §1

NEK11 = target: T3, NEK11 (Homo sapiens, UniProt Q8NG66); settings: NEK11, 1 μM; read-out: % control
T3 sequence (Q8NG66 1-645): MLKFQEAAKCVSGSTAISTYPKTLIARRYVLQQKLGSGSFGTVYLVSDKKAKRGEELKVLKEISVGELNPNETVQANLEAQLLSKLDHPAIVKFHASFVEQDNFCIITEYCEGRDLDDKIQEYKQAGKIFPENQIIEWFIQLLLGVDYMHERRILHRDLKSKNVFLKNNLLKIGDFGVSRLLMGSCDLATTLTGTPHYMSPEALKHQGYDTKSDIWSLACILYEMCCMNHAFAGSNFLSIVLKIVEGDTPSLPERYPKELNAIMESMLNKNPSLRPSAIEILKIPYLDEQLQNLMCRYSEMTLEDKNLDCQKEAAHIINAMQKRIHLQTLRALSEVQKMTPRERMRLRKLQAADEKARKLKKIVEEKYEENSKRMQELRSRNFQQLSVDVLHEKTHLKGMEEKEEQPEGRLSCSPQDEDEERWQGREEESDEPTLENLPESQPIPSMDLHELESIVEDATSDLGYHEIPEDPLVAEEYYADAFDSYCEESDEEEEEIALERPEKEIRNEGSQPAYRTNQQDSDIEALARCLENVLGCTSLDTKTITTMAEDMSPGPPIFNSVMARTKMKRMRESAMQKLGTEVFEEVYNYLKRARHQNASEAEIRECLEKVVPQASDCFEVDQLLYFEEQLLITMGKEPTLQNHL
Summary of the method: as §1

RET(V804L) = RET(V804L) (Homo sapiens, UniProt P07949, V804L); settings: read-out: % control
Summary of the method: as §1

SRPK2 = target: T4, SRPK2 (Homo sapiens, UniProt P78362); settings: SRPK2, 1 μM; read-out: % control
T4 construct: purchased KinomeScan® (panel service)
Summary of the method: as §1

STK33 = target: T5, STK33 (Homo sapiens, UniProt Q9BYT3); settings: STK33, 1 μM; read-out: % control
T5 construct: purchased KinomeScan® (panel service)
Summary of the method: as §1

TAOK2 = target: T6, TAOK2 (Homo sapiens, UniProt Q9UL54); settings: TAOK2, 1 μM; read-out: % control
T6 construct: purchased KinomeScan® (panel service)
T6 sequence (Q9UL54 1-1235): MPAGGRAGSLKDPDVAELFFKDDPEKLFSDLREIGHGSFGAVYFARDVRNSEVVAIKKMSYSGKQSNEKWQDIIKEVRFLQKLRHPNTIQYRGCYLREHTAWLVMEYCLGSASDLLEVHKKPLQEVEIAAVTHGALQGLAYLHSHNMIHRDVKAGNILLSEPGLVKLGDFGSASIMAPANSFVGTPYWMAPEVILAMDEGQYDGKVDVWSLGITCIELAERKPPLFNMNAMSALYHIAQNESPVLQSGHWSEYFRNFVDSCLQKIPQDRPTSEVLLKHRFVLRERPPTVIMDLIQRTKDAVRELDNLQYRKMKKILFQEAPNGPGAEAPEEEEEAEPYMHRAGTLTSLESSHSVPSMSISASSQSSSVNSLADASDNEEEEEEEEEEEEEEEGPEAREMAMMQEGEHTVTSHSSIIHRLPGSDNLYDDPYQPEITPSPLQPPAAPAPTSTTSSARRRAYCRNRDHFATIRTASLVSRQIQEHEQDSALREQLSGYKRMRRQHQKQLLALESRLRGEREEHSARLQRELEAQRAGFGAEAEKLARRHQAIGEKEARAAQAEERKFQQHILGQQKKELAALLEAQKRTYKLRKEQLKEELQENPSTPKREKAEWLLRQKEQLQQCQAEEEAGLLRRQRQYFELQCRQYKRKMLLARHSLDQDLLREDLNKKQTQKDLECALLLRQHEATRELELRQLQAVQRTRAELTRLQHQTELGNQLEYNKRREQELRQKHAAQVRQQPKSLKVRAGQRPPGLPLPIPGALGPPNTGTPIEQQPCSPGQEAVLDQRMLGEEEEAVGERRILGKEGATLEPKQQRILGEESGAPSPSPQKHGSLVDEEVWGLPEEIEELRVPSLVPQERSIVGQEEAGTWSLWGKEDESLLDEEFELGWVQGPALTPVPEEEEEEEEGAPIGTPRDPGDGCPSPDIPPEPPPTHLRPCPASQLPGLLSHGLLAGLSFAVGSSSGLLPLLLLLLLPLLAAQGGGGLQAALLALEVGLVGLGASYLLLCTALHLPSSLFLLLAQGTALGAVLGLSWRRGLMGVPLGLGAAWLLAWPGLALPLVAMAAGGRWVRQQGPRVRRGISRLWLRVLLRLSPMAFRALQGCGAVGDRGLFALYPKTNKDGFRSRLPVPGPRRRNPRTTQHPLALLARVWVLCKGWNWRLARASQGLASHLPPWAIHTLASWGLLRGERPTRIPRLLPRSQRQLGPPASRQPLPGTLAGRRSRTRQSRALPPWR
Summary of the method: as §1

WNK3 = WNK3 (Homo sapiens, UniProt Q9BYP7); settings: WNK3, 1 μM; read-out: % control
Summary of the method: as §1

DAPK1, sequence (P53355 whole entry): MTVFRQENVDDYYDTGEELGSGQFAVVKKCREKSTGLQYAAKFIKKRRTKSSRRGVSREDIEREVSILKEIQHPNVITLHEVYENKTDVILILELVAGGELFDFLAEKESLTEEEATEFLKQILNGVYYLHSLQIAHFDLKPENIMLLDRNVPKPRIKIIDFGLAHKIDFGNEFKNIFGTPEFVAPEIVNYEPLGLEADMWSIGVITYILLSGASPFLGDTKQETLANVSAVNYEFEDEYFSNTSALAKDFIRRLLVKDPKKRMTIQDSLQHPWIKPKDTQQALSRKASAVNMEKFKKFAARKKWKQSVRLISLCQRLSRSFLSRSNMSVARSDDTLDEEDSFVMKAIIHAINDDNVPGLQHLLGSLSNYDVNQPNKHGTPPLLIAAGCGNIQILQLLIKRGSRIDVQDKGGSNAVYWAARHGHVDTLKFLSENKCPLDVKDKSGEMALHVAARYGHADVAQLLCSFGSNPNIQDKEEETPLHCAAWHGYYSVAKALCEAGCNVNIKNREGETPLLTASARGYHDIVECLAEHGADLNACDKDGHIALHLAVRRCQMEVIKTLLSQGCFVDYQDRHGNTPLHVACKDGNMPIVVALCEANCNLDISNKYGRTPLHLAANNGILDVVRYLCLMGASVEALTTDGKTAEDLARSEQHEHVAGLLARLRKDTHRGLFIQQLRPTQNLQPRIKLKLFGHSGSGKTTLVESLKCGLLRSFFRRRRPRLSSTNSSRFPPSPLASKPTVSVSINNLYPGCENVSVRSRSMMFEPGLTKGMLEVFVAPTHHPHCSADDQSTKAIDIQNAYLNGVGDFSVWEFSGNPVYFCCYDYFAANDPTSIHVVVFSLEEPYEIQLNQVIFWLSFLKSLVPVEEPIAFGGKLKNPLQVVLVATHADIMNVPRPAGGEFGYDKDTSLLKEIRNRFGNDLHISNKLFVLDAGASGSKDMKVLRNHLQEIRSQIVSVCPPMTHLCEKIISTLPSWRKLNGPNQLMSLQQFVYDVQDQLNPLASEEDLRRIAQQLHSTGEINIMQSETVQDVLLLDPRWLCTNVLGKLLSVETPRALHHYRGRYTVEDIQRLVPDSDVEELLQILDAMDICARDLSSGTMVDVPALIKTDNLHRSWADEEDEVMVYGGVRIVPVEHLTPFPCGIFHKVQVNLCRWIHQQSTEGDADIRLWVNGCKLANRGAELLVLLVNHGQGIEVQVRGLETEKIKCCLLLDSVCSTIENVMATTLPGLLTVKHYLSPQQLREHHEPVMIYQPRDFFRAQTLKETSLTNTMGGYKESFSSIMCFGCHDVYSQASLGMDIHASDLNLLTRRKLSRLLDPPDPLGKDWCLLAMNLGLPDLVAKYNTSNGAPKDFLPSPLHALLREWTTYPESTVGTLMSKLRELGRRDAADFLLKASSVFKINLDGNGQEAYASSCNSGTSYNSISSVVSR
CDK7, sequence (P50613 whole entry): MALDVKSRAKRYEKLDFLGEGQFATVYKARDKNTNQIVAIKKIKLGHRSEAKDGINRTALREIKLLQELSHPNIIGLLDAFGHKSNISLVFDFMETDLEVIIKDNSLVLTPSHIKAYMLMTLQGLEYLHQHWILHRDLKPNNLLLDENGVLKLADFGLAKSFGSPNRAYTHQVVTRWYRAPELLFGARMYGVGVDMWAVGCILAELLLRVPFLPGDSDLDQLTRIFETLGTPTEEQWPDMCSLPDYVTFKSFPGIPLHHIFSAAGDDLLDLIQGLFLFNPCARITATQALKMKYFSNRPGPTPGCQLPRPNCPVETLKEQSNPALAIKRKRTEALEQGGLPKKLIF
ERBB4, sequence (Q15303 26-1308): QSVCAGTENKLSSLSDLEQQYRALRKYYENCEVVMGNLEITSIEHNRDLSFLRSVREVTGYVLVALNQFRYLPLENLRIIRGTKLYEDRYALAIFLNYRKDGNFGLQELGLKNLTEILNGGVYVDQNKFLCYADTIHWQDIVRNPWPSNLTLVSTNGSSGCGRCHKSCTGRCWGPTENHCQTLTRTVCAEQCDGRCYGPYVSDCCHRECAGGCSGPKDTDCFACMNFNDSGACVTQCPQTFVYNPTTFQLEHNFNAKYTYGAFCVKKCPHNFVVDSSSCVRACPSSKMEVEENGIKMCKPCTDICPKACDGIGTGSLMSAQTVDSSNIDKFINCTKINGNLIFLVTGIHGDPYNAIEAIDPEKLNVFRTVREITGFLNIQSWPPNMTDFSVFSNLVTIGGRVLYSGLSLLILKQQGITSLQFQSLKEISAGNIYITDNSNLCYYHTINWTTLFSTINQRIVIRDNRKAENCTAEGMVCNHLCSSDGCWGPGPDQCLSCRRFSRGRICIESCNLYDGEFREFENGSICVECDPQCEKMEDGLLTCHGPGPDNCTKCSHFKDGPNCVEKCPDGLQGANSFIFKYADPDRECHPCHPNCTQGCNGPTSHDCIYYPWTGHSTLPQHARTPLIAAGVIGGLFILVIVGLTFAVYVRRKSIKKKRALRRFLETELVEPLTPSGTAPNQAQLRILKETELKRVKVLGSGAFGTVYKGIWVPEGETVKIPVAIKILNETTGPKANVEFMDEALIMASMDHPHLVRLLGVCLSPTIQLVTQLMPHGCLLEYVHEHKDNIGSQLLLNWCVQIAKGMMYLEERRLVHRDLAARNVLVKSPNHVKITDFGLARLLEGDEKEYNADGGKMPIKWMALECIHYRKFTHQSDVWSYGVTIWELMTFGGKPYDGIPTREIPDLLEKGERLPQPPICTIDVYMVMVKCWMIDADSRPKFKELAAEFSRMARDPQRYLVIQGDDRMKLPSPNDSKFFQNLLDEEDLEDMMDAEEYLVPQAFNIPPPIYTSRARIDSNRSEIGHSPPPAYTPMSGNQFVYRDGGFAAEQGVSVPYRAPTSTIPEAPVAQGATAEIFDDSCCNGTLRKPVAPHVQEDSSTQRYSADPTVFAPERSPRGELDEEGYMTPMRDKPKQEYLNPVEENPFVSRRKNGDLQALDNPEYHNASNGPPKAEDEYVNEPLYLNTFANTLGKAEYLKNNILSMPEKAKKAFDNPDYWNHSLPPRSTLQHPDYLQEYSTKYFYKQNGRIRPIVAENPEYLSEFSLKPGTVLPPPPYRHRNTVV
T4 sequence (P78362 whole entry): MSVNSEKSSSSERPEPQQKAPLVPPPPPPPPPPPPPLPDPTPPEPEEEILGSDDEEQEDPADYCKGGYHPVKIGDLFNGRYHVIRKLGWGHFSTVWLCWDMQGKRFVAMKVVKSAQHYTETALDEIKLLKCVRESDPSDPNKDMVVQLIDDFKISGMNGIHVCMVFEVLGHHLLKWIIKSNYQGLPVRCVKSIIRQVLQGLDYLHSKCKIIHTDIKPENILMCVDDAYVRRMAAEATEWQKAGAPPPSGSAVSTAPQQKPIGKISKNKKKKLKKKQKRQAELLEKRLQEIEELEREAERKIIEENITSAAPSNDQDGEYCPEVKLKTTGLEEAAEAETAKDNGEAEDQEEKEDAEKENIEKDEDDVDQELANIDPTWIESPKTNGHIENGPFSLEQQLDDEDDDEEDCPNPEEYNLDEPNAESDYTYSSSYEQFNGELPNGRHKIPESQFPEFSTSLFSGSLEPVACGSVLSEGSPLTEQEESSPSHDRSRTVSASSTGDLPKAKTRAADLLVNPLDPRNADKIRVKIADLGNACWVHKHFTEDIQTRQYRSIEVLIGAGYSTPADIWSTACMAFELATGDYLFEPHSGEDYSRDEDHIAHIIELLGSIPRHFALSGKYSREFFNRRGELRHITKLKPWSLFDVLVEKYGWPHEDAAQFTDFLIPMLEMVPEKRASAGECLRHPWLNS
T5 sequence (Q9BYT3 whole entry): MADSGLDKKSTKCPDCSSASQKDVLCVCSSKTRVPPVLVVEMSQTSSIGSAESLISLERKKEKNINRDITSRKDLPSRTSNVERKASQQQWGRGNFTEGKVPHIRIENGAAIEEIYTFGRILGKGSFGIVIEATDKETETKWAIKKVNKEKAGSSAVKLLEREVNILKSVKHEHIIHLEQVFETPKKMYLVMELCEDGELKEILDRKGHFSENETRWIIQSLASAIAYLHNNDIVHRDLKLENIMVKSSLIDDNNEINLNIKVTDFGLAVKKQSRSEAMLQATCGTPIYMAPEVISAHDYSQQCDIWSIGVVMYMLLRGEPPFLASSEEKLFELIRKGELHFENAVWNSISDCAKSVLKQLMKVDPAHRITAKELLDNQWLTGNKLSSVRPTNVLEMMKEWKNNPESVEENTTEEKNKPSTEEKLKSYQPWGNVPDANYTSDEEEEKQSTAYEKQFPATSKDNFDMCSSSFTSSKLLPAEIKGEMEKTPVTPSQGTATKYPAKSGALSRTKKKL
LCK, sequence (P06239 whole entry): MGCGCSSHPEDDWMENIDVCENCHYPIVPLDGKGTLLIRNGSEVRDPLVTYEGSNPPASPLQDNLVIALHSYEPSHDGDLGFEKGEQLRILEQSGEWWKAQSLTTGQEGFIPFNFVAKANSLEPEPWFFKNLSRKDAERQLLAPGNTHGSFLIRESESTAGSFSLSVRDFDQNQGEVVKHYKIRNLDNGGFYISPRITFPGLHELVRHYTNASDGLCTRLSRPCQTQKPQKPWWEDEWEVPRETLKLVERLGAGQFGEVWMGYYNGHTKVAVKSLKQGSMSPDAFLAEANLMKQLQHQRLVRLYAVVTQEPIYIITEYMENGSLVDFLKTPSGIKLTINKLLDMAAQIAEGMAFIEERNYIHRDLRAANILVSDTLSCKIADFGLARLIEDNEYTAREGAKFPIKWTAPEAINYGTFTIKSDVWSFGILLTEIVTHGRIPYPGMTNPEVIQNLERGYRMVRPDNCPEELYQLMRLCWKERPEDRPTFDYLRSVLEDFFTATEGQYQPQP
T1 sequence (O60674 849-1124 limits assumed): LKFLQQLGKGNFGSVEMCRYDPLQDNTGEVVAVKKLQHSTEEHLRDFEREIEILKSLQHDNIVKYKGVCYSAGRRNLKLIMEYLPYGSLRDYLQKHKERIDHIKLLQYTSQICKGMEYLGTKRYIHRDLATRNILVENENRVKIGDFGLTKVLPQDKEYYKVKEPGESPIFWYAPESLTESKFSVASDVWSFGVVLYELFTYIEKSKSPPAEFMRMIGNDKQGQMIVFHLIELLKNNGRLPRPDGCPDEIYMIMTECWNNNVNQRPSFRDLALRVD

| Structure (SMILES) | remaining binding at 1 µM (CDK7) [%] | remaining binding at 1 µM (DAPK1) [%] | remaining binding at 1 µM (ERBB4) [%] | remaining binding at 1 µM [1] [%] | remaining binding at 1 µM (KIT(V559D, V654A)) [%] | remaining binding at 1 µM (LCK) [%] | remaining binding at 1 µM (NEK11) [%] | remaining binding at 1 µM (RET(V804L)) [%] | remaining binding at 1 µM (SRPK2) [%] | remaining binding at 1 µM (STK33) [%] | remaining binding at 1 µM (TAOK2) [%] | remaining binding at 1 µM (WNK3) [%] |
| --- | --- | --- | --- | --- | --- | --- | --- | --- | --- | --- | --- | --- |
| CNc1c(-c2cnn([C@H]3CCN(C(C)=O)C[C@@H]3F)c2)cnc2[nH]cc(Cl)c12 [Compound 77, 1-((3S,4S)-4-(4-(3-chloro-4-(methylamino)-1H-pyrrolo[2,3-b]pyridin-5-yl)-1H-pyrazol-1-yl)-3-fluoropiperidin-1-yl)ethan-1-one] | 94 | 73 | 100 | 7.9 | 53 | 96 | 97 | 45 | 12 | 100 | 69 | 86 |
| CNc1c(-c2ccc(C(=O)N3CCC(N4CCOCC4)CC3)cc2)cnc2[nH]cc(Cl)c12 [Compound 96, (4-(3-chloro-4-(methylamino)-1H-pyrrolo[2,3-b]pyridin-5-yl)phenyl)(4-morpholinopiperidin-1-yl)methanone] | 90 | 74 | 100 | 29 | 94 | 100 | 96 | 59 | 16 | 100 | 69 | 73 |
| O=C(c1ccc(-c2cnc3[nH]cc(Cl)c3c2NC2CCCC2)cc1)N1CCC(N2CCOCC2)CC1 [Compound 101, (4-(3-chloro-4-(cyclopentylamino)-1H-pyrrolo[2,3-b]pyridin-5-yl)phenyl)(4-morpholinopiperidin-1-yl)methanone] | 93 | 80 | 97 | 100 | 100 | 100 | 100 | 97 | 60 | 100 | 81 | 92 |
